This is an account of results in US20050277656A1, “Combination comprising docetaxel and a CDK inhibitor” (Cyclacel Limited, priority 2002, published 2005).

In series [1] the test system is lung cancer xenograft (LXFL H460). In words: human tumour xenograft study, Experiment 2: docetaxel/roscovitine scheduling (LXFL H460). Type of series: in vivo, nude mice (NMRI nu/nu). To be noted: for T/C [%] day 28 / T/Copt [%] / dayopt. (day of T/Copt): single therapy: CYC202 300 mg/kg/d po bd days 0-4, 7-11, 14-18, TXT 20 mg/kg iv days 0, 14. On the technique in general: A xenograft is tissue or cells of one species grown in another, often human tumour cells in immunodeficient mice.

The subject of series [2] is MAXF 857 primary breast cancer xenograft. To be noted: taxotere on day 2, roscovitine on days 0-3 and 7-9 after randomization, or the combination of the two treatments.
Series [3] in a line: toxicities (lethality, body weight change) in the LXFL H460 xenograft study. The class given is in vivo, nude mice (NMRI nu/nu). To be noted: single therapy: CYC202 300 mg/kg/d po bd days 0-4, 7-11, 14-18, TXT 20 mg/kg iv days 0, 14; for Median BWC % (day 21): one week after last therapy of docetaxel.
Series [4] concerns breast tumor cells (MDA-435). In words: MTT assay, roscovitine exposure followed by docetaxel. Particulars: single agent at 100% of its IC50 (roscovitine 15 ug/ml or Tax. […]). Background: Tetrazolium assays rely on reduction of a dye to a coloured formazan, in cell work by metabolically active cells.

For `CC[C@H](CO)Nc1nc(NCc2ccccc2)c2ncn(C(C)C)c2n1` [roscovitine, 6-benzylamino-2-[(R)-1-ethyl-2-hydroxyethylamino]-9-isopropylpurine], in series [1], the “T/C [%] day 28” value was 64%, the “T/Copt [%]” value is given as 64.3% and the “dayopt. (day of T/Copt)” value is 28 days. In addition, the “T/C [%] day 28” value in series [1] (listed as CYC202) was 64.3%. Further, the “optimal T/C” value in series [2] stood at 63%. For the same compound, the “Median BWC % (day 21)” value in series [3] is “+7.1%”. For the same compound, in series [4], the “% Abs” value is reported as 0% and the “% Response” value was found to be 43.3%.

`CC(=O)O[C@@]12CO[C@@H]1C[C@H](O)[C@@]1(C)C(=O)[C@H](O)C3=C(C)[C@@H](OC(=O)[C@H](O)[C@@H](NC(=O)OC(C)(C)C)c4ccccc4)C[C@@](O)([C@@H](OC(=O)c4ccccc4)[C@H]21)C3(C)C` [docetaxel]: in series [1] (LXFL H460, combination Schedule 1, or docetaxel in single therapy), the “Tumor growth delay in relation to the vehicle treated control” value amounted to 9 days. Besides, in series [1], the “T/C [%] day 28” value was 27%, the “T/Copt [%]” value came out at 12.2% and the “dayopt. (day of T/Copt)” value stood at 10 days. Moreover, the “T/C [%] day 28” value in series [1] (listed as TXT) was 27.3%. In addition, in series [2], the “optimal T/C” value is reported as 21%. Also, in series [3], the “Lethality n (day)” value was 0/10 and the “Median BWC % (day 21)” value is recorded as −4.2%. Besides, the “% Response” value in series [4] worked out at 40.7%.
